Reference: patent US10160748B2 (AbbVie Inc., priority 2015, dated 2018)

Target: TNFα trimer (Homo sapiens, UniProt P01375)
Assay: TNFα FP Competitive Binding Assay
Conditions: FP binding assay; 20 nM TNFα trimer, 1 nM OregonGreen488 probe; read-out: TNF IC50
In short: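 Fluorescence polarization competition: 20 nM TNFα trimer with 1 nM fluorescein-labelled probe in HEPES/NaCl/EDTA/Triton X-100 buffer, compound in 12-point 1:3 dilutions (final top 338 μM or 100 μM). Incubated 18-24 h, background-subtracted mP read, variable-slope dose-response fitting.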

TNFα trimer, sequence (P01375 77-233 limits assumed): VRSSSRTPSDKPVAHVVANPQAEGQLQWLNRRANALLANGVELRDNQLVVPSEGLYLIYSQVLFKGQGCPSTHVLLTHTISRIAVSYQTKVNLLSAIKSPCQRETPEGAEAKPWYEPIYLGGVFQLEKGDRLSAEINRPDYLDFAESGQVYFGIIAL

IC50, 1000 to 10000 nM:
C[C@@H]1CN(c2ncc(-c3ccc4c(=O)n(C)n(Cc5ccccc5Cl)c4c3C#N)cn2)CCN1C(=O)CO [Example 71, (R)-1-(2-Chlorobenzyl)-6-(2-(4-(2-hydroxyacetyl)-3-methylpiperazin-1-yl)pyrimidin-5-yl)-2-methyl-3-oxo-2,3-dihydro-1H-indazole-7-carbonitrile]
Cn1cc(C(F)(F)F)c(Cn2c3cc(-c4cnc(N5CCN6C(=O)NC[C@H]6C5)nc4)ccc3c(=O)n2C)n1 [Example 72, (S)-7-(5-(2-methyl-1-((1-methyl-4-(trifluoromethyl)-1H-pyrazol-3-yl)methyl)-3-oxo-2,3-dihydro-1H-indazol-6-yl)pyrimidin-2-yl)hexahydroimidazo[1,5-a]pyrazin-3(2H)-one]
COCc1cccc(OC(F)F)c1Cn1c2cc(-c3cnc(C(C)(C)O)nc3)ccc2c(=O)n1C [Example 77, 1-(2-(Difluoromethoxy)-6-(methoxymethyl)benzyl)-6-(2-(2-hydroxypropan-2-yl)pyrimidin-5-yl)-2-methyl-1H-indazol-3(2H)-one]
CN1CCCC(Nc2ccc(Cl)c(Cn3c4cc(-c5cnc(C(C)(C)O)nc5)ccc4c(=O)n3C)c2)C1=O (stereo not drawn) [Example 83, 1-(2-Chloro-5-((1-methyl-2-oxopiperidin-3-yl)amino)benzyl)-6-(2-(2-hydroxypropan-2-yl)pyrimidin-5-yl)-2-methyl-1H-indazol-3(2H)-one]
Cc1ccc(OC(F)F)c(Cn2c3cc(-c4cnc(C5(C)CCN(C)C5)nc4)ccc3c(=O)n2C)c1 (stereo not drawn) [Example 88, 1-(2-(Difluoromethoxy)-5-methylbenzyl)-6-(2-(1,3-dimethylpyrrolidin-3-yl)pyrimidin-5-yl)-2-methyl-1H-indazol-3(2H)-one]

IC50, < 1000 nM:
CC(=O)N1CCN(c2ncc(-c3ccc4c(=O)n(C)n(Cc5nc(CC#N)ccc5C(F)(F)F)c4c3)cn2)C[C@H]1C [Example 61, (R)-2-(6-((6-(2-(4-Acetyl-3-methylpiperazin-1-yl)pyrimidin-5-yl)-2-methyl-3-oxo-2,3-dihydro-1H-indazol-1-yl)methyl)-5-(trifluoromethyl)pyridin-2-yl)acetonitrile]
[2H]C([2H])([2H])n1c(=O)c2ccc(-c3cnc(N4CCN(C(=O)CO)[C@H](C)C4)nc3)cc2n1Cc1cc(C)ccc1OC(F)F [Example 62, (R)-1-(2-(Difluoromethoxy)-5-methylbenzyl)-6-(2-(4-(2-hydroxyacetyl)-3-methylpiperazin-1-yl)pyrimidin-5-yl)-2-(methyl-d3)-1H-indazol-3(2H)-one]
[2H]C([2H])([2H])n1c(=O)c2ccc(-c3cnc(N4CCN(C(C)=O)[C@H](C)C4)nc3)cc2n1Cc1cc(C)ccc1OC(F)F [Example 63, (R)-6-(2-(4-Acetyl-3-methylpiperazin-1-yl)pyrimidin-5-yl)-1-(2-(difluoromethoxy)-5-methylbenzyl)-2-methyl-d3-1H-indazol-3(2H)-one]
CC(=O)N1CCN(c2ncc(-c3ccc4c(=O)n(C)n(Cc5cn(CCO)cc5C(F)(F)F)c4c3)cn2)C[C@H]1C [Example 64, (R)-6-(2-(4-Acetyl-3-methylpiperazin-1-yl)pyrimidin-5-yl)-1-((1-(2-hydroxyethyl)-4-(trifluoromethyl)-1H-pyrrol-3-yl)methyl)-2-methyl-1H-indazol-3(2H)-one]
CC(=O)N1CCN(c2ncc(-c3ccc4c(=O)n(C)n(Cc5c(CO)cccc5OC(F)F)c4c3)cn2)[C@H](C)C1 [Example 65, (R)-6-(2-(4-acetyl-2-methylpiperazin-1-yl)pyrimidin-5-yl)-1-(2-(difluoromethoxy)-6-(hydroxymethyl)benzyl)-2-methyl-1H-indazol-3(2H)-one]
Cn1c(=O)c2ccc(-c3cnc(N4CCN5C(=O)NC[C@@H]5C4)nc3)cc2n1Cc1c(CO)cccc1OC(F)F [Example 66, (R)-7-(5-(1-(2-(difluoromethoxy)-6-(hydroxymethyl)benzyl)-2-methyl-3-oxo-2,3-dihydro-1H-indazol-6-yl)pyrimidin-2-yl)hexahydroimidazo[1,5-a]pyrazin-3(2H)-one]
CN(C)C(=O)OCc1ccc(OC(F)F)c(Cn2c3cc(-c4cnc(N5CCN6C(=O)NC[C@@H]6C5)nc4)ccc3c(=O)n2C)c1 [Example 67, (R)-4-(Difluoromethoxy)-3-((2-methyl-3-oxo-6-(2-(3-oxohexahydroimidazo[1,5-a]pyrazin-7(1H)-yl)pyrimidin-5-yl)-2,3-dihydro-1H-indazol-1-yl)methyl)benzyldimethylcarbamate]
Cn1c(=O)c2ccc(-c3cnc(N4CCN5C(=O)NC[C@@H]5C4)nc3)cc2n1Cc1cc(CC#N)ccc1OC(F)F [Example 68, (R)-2-(4-(Difluoromethoxy)-3-((2-methyl-3-oxo-6-(2-(3-oxohexahydromidazo[1,5-a]pyrazin-7(1H)-yl)pyrimidin-5-yl)-2,3-dihydro-1H-indazol-1-yl)methyl)phenyl)acetonitrile]
Cc1ccc(OC(F)F)c(Cn2c3cc(-c4cnc(N5CCN(C(=O)COP(=O)(O)O)[C@H](C)C5)nc4)ccc3c(=O)n2C)c1 [Example 69, (R)-2-(4-(5-(1-(2-(Difluoromethoxy)-5-methylbenzyl)-2-methyl-3-oxo-2,3-dihydro-1H-indazol-6-yl)pyrimidin-2-yl)-2-methyldihydrogen phosphate]
COc1c(-c2cnc(N3CCN(C(=O)CO)[C@H](C)C3)nc2)ccc2c(=O)n(C)n(Cc3ccccc3OC(F)F)c12 [Example 70, (R)-1-(2-(Difluoromethoxy)benzyl)-6-(2-(4-(2-hydroxyacetyl)-3-methylpiperazin-1-yl)pyrimidin-5-yl)-7-methoxy-2-methyl-1H-indazol-3(2H)-one]
CC(=O)N1CCN(c2ncc(-c3ccc4c(=O)n(C)n(Cc5nc(C)ccc5C(F)(F)F)c4n3)cn2)C[C@H]1C [Example 73, (R)-6-(2-(4-Acetyl-3-methylpiperazin-1-yl)pyrimidin-5-yl)-2-methyl-1-((6-methyl-3-(trifluoromethyl)pyridin-2-yl)methyl)-1H-pyrazolo[3,4-b]pyridin-3(2H)-one]
CC(=O)N1CCN(c2ncc(-c3ccc4c(=O)n(C)n(Cc5nc(C)ccc5C(F)(F)F)c4c3)cn2)[C@H](C)C1 [Example 74, (R)-6-(2-(4-Acetyl-2-methylpiperazin-1-yl)pyrimidin-5-yl)-2-methyl-1-((6-methyl-3-(trifluoromethyl)pyridin-2-yl)methyl)-1H-indazol-3(2H)-one]
CC(=O)N1CCN(c2ncc(-c3ccc4c(=O)n(C)n(Cc5nc(C)ccc5OC(F)F)c4c3)cn2)C[C@H]1C [Example 75, (R)-6-(2-(4-Acetyl-3-methylpiperazin-1-yl)pyrimidin-5-yl)-1-((3-(difluoromethoxy)-6-methylpyridin-2-yl)methyl)-2-methyl-1H-indazol-3(2H)-one]
Cc1ccc(OC(F)F)c(Cn2c3cc(-c4cnc(N5CCN(C(=O)CO)[C@H](C)C5)nc4)ccc3c(=O)n2C)n1 [Example 76, (R)-1-((3-(Difluoromethoxy)-6-methylpyridin-2-yl)methyl)-6-(2-(4-(2-hydroxyacetyl)-3-methylpiperazin-1-yl)pyrimidin-5-yl)-2-methyl-1H-indazol-3(2H)-one]
C[C@@H]1CN(C(=O)CO)CCN1c1ncc(-c2ccc3c(=O)n(C)n(Cc4cc(CC#N)ccc4OC(F)F)c3c2)cn1 [Example 78, (R)-2-(4-(difluoromethoxy)-3-((6-(2-(4-(2-hydroxyacetyl)-2-methylpiperazin-1-yl)pyrimidin-5-yl)-2-methyl-3-oxo-2,3-dihydro-1H-indazol-1-yl)methyl)phenyl)acetonitrile]
Cn1c(=O)c2ccc(-c3cnc(N4CCN5C(=O)OC[C@H]5C4)nc3)cc2n1Cc1cc(CC#N)ccc1OC(F)F [Example 79, (R)-2-(4-(Difluoromethoxy)-3-((2-methyl-3-oxo-6-(2-(3-oxotetrahydro-1H-oxazolo[3,4-a]pyrazin-7(3H)-yl)pyrimidin-5-yl)-2,3-dihydro-1H-indazol-1-yl)methyl)phenyl)acetonitrile]
Cc1ccc(OC(F)F)c(Cn2c3nc(-c4cnc(N5CCN(C(=O)CO)C[C@H]5C)nc4)ccc3c(=O)n2C)c1 [Example 80, (R)-1-(2-(Difluoromethoxy)-5-methylbenzyl)-6-(2-(4-(2-hydroxyacetyl)-2-methylpiperazin-1-yl)pyrimidin-5-yl)-2-methyl-1H-pyrazolo[3,4-b]pyridin-3(2H)-one]
Cc1ccc(Cl)c(Cn2c3nc(-c4cnc(N5CCN(C(=O)CO)C[C@H]5C)nc4)ccc3c(=O)n2C)c1 [Example 81, (R)-1-(2-Chloro-5-methylbenzyl)-6-(2-(4-(2-hydroxyacetyl)-2-methylpiperazin-1-yl)pyrimidin-5-yl)-2-methyl-1H-pyrazolo[3,4-b]pyridin-3(2H)-one]
CC(=O)N1CCN(c2ncc(-c3ccc4c(=O)n(C)n(Cc5ccc(C)cc5SC(F)F)c4c3)cn2)C[C@H]1C [Example 82, (R)-6-(2-(4-Acetyl-3-methylpiperazin-1-yl)pyrimidin-5-yl)-1-(2-((difluoromethyl)thio)-4-methylbenzyl)-2-methyl-H-indazol-3(2H)-one]
Cn1c(=O)c2ccc(-c3cnc(N4CCN5C(=O)NC[C@@H]5C4)nc3)cc2n1Cc1nc(CO)ccc1OC(F)F [Example 84]
Cc1ccc(OC(F)F)c(Cn2c3cc(-c4cnc(C5(C)CCNC5)nc4)ccc3c(=O)n2C)c1 (stereo not drawn) [Example 87, 1-(2-(Difluoromethoxy)-5-methylbenzyl)-2-methyl-6-(2-(3-methylpyrrolidin-3-yl)pyrimidin-5-yl)-1H-indazol-3(2H)-one]
Cc1ccc(OC(F)F)c(Cn2c3cc(-c4ccc(C(C)(C)N)nc4)c(F)cc3c(=O)n2C)c1 [Example 89, 6-(6-(2-Aminopropan-2-yl)pyridin-3-yl)-1-(2-(difluoromethoxy)-5-methylbenzyl)-5-fluoro-2-methyl-1H-indazol-3(2H)-one 2,2,2-trifluoroacetate]
